Where two headings read alike, the source gives them in different places.
Key:
[1] = tested on: CYPES; assay type: in vivo, Cyperus esculentus
Protocol: Seeds or nutlets of the desired test plant species were planted in a soil matrix prepared by mixing a loam or sandy loam soil (e.g., 28.6 percent silt, 18.8 percent clay, and 52.6 percent sand, with a pH of about 5.8 and an organic matter content of about 1.8 percent) and calcareous grit in an 80 to 20 ratio. The soil matrix was contained in plastic pots with a volume of 1 quart and a surface area of 83.6 square centimeters (cm^2). […] The plants were grown for 8-22 days in a greenhouse with an approximate 14 hour (h) photoperiod which was maintained at about 29° C. during the day and 26° C. during the night. Nutrients (Peters Excel® 15-5-15 5-Ca 2-Mg and iron chelate) were applied in the irrigation solution as needed and water was added on a regular basis. Supplemental lighting was provided with overhead metal halide 1000-Watt lamps as necessary. The plants were employed for testing when they reached the first through fourth true leaf stage.
Treatments consisted of the acid or esters of 4-amino-3-chloro-6-(4-chloro-2-fluoro-3-methoxyphenyl)-5-fluoropyridine-2-carboxylic acid (Compound A), each formulated as an SC (suspension concentrate), and various insecticidal components alone and in combination. Forms of compound A were applied on an acid equivalent basis.
For treatments comprised of formulated compounds, measured amounts of compounds were placed individually in 25 mL glass vials and diluted in a volume of 1.25% volume per volume (v/v) Agri-Dex® crop oil concentrate to obtain 12× stock solutions. […] Application solutions were prepared by adding an appropriate amount of each stock solution (e.g., 1 mL) and diluted to the appropriate final concentrations with the addition of […] of an aqueous mixture of 1.25% (v/v) crop oil concentrate so that the final spray solutions contained 1.25+/−0.05% (v/v) crop oil concentrate.
As required, additional water and/or 97:3 v/v acetone/DMSO was added to individual application solutions so that the final acetone and DMSO concentrations of the application solutions being compared were 8.1% and 0.25%, respectively.
All stock solutions and applications solutions were visually inspected for compound compatibility prior to application. Spray solutions were applied to the plant material with an overhead Mandel track sprayer equipped with 8002E nozzles calibrated to deliver 187 L/ha over an application area of 0.503 square meters (m^2) at a spray height of 18 to 20 inches (46 to 50 cm) above average plant canopy height. Control plants were sprayed in the same manner with the solvent blank.
The treated plants and control plants were placed in a greenhouse as described above and watered by sub-irrigation to prevent wash-off of the test compounds. After approximately 3 weeks, the condition of the test plants as compared to that of the untreated plants was determined visually and scored on a scale of 0 to 100 percent where 0 corresponds to no injury or growth inhibition and 100 corresponds to complete kill.
Colby's equation was used to determine the herbicidal effects expected from the mixtures (Colby, S. R. Calculation of the synergistic and antagonistic response of herbicide combinations. Weeds 1967, 15, 20-22.).
The following equation was used to calculate the expected activity of mixtures containing two active ingredients, A and B: Expected=A+B−(A×B/100)

[2] = tested on: ECHCG; test: In-water applied weed control, transplanted paddy rice (greenhouse); assay type: in vivo, Echinochloa crus-galli; conditions: 8 g ae/ha alone
Protocol: Weed seeds or nutlets of the desired test plant species were planted in puddled soil (mud) prepared by mixing a shredded, non-sterilized mineral soil (50.5 percent silt, 25.5 percent clay, and 24 percent sand, with a pH of about 7.6 and an organic matter content of about 2.9 percent) and water at a 1:1 volumetric ratio. The prepared mud was dispensed in 365 mL aliquots into 16-ounce (oz.) non-perforated plastic pots with a surface area of 86.59 square centimeters (cm^2) leaving a headspace of 3 centimeters (cm) in each pot. Rice seeds were planted in Sun Gro MetroMix® 306 planting mixture, which typically has a pH of 6.0 to 6.8 and an organic matter content of about 30 percent, in plastic plug trays. Seedlings at the second or third leaf stage of growth were transplanted into 860 mL of mud contained in 32-oz. non-perforated plastic pots with a surface area of 86.59 cm^2 4 days prior to herbicide application. The paddy was created by filling the headspace of the pots with 2.5 to 3 cm of water. When required to ensure good germination and healthy plants, a fungicide treatment and/or other chemical or physical treatment was applied. The plants were grown for 4-22 days in a greenhouse with an approximate 14 h photoperiod which was maintained at about 29° C. during the day and about 26° C. during the night. Nutrients were added as Osmocote® (17:6:10, N:P:K+minor nutrients) at 2 grams (g) per 16-oz. pot and 4 g per 32-oz. pot. Water was added on a regular basis to maintain the paddy flood, and supplemental lighting was provided with overhead metal halide 1000-Watt lamps as necessary. The plants were employed for testing when they reached the first through fourth true leaf stage. […]
Treatment requirements for each compound or herbicidal component were calculated based upon the rates being tested, the concentration of active ingredient or acid equivalent in the formulation, an application volume of 2 mL per component per pot, and an application area of 86.59 cm^2 per pot.
For formulated compounds, a measured amount was placed in an individual 100 or 200 mL glass vial and was dissolved in a volume of 1.25% (v/v) AgriDex® crop oil concentrate to obtain application solutions. […]
The treated plants and control plants were placed in a greenhouse as described above and water was added as needed to maintain a paddy flood. After approximately 3 weeks the condition of the test plants as compared with that of the untreated plants was determined visually and scored on a scale of 0 to 100 percent where 0 corresponds to no injury or growth inhibition and 100 corresponds to complete kill. […]

COc1c(Cl)ccc(-c2nc(C(=O)OCc3ccccc3)c(Cl)c(N)c2F)c1F [Compound A Benzyl Ester]
Visual Weed Control (%) - 20 DAA CYPES Obs ([1]; 8 g ae/ha alone): 25%
Visual Weed Control (%) - 22 DAA CYPES Obs ([1]; 8 g ae/ha alone): 70%
Visual Weed Control (%) - 20 DAA CYPES Obs ([1]; 16 g ae/ha alone): 40%
Visual Weed Control (%) - 22 DAA CYPES Obs ([1]; 16 g ae/ha alone): 95%
Visual Weed Control (%) - 22 DAA CYPES Obs ([1]; 22 DAA, 8 g ae/ha alone): 70%
Visual Weed Control (%) - 20 DAA CYPES Obs ([1]; 32 g ae/ha alone): 73%
Visual Weed Control (%) - 21 DAA ECHCG Obs [2]: 40%
